{"source": "paper PMC9851200", "about": "“Multiparameter phenotypic screening for endogenous TFEB and TFE3 translocation identifies novel chemical series modulating lysosome function” (Autophagy, 2022)", "origin": "cited, not measured here", "design_in_all_cases": "method as in original PKIS2 published data", "key": {"[1]": {"molecular_target": "kinases (KINOMEscan panel) (Homo sapiens, UniProt Q86Z02)", "sequence (Q86Z02 whole entry)": "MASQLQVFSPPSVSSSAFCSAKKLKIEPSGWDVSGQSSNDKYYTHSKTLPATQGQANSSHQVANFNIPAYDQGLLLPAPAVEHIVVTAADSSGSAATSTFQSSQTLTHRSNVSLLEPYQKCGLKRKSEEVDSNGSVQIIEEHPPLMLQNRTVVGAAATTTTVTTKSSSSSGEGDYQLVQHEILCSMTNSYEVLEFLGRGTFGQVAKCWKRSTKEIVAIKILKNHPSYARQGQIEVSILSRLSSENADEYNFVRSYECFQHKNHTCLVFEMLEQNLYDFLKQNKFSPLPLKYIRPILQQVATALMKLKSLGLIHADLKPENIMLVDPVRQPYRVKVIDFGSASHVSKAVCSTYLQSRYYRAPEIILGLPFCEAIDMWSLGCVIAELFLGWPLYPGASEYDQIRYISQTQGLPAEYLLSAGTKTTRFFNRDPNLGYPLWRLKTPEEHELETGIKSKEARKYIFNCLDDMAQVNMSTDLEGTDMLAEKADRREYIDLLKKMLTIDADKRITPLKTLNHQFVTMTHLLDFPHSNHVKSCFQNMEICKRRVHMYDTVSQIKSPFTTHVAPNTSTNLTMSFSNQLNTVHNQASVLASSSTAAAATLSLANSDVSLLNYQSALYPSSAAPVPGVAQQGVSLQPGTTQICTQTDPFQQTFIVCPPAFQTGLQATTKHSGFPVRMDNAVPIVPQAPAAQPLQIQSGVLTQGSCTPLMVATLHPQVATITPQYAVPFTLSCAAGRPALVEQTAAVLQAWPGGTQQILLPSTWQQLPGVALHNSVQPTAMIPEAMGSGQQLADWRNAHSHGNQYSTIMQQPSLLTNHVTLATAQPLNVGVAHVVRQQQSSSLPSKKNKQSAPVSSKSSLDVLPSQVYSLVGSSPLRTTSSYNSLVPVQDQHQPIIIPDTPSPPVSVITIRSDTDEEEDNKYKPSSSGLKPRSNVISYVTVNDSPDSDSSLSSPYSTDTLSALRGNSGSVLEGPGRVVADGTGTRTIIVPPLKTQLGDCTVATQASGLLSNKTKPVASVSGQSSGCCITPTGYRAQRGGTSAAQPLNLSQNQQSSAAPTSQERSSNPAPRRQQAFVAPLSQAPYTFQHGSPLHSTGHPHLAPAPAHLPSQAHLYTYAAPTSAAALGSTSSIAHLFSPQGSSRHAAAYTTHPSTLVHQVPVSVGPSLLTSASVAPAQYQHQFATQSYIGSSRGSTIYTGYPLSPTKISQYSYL", "conditions": "HIPK1; Published KINOMEscan; ref original PKIS2 published data; cited from earlier work"}, "[2]": {"molecular_target": "T1, kinases (KINOMEscan panel) (Homo sapiens, UniProt Q13546)", "T1 sequence (Q13546 1-671)": "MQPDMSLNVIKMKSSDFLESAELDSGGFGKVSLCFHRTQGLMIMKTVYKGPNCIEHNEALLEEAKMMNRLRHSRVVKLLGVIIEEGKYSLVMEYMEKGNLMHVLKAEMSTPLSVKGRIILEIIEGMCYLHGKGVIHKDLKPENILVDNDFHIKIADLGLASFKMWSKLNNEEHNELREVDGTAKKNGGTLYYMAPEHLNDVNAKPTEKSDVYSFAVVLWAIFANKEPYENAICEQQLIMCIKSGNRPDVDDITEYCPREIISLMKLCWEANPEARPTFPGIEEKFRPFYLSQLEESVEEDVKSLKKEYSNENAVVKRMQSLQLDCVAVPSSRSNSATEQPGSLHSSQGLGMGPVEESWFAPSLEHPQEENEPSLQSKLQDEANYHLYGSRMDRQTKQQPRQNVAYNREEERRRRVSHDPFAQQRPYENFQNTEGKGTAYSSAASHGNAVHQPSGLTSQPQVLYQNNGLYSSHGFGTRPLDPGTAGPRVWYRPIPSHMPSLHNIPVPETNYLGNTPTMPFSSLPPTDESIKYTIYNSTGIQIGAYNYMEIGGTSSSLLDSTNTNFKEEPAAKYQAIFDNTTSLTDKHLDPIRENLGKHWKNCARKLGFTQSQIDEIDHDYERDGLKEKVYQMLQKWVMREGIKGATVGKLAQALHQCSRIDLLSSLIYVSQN", "conditions": "kinase RIPK1; Published KINOMEscan; ref original PKIS2 published data; cited from earlier work"}, "[3]": {"molecular_target": "kinases (KINOMEscan panel) (Homo sapiens, UniProt P21127)", "sequence (P21127 whole entry)": "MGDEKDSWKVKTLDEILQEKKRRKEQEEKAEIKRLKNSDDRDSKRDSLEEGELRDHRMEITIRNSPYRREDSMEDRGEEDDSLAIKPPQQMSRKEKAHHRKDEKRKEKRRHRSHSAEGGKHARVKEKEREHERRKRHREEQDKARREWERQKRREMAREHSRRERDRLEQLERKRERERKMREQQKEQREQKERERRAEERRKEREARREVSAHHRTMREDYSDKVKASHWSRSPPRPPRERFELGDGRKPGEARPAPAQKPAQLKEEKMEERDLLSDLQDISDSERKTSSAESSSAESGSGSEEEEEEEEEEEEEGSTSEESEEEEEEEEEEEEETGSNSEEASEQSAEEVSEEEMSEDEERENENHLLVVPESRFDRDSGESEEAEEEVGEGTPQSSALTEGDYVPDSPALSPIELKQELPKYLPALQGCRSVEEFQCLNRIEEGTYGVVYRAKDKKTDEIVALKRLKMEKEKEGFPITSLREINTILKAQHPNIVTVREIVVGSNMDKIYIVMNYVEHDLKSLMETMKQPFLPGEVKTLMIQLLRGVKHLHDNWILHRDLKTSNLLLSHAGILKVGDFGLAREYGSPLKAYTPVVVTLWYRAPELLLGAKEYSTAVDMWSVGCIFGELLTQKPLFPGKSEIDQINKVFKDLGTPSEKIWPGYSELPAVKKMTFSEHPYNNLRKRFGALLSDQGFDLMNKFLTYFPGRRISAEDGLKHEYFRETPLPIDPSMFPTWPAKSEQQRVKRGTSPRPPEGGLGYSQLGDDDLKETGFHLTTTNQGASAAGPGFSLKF", "conditions": "CDK11B; Published KINOMEscan; ref original PKIS2 published data; cited from earlier work"}, "[4]": {"molecular_target": "kinases (KINOMEscan panel) (Homo sapiens, UniProt Q9BYP7)", "conditions": "Published KINOMEscan; ref original PKIS2 published data; cited from earlier work"}, "[5]": {"molecular_target": "T2, kinases (KINOMEscan panel) (Homo sapiens, UniProt Q08881)", "T2 sequence (Q08881 1-620)": "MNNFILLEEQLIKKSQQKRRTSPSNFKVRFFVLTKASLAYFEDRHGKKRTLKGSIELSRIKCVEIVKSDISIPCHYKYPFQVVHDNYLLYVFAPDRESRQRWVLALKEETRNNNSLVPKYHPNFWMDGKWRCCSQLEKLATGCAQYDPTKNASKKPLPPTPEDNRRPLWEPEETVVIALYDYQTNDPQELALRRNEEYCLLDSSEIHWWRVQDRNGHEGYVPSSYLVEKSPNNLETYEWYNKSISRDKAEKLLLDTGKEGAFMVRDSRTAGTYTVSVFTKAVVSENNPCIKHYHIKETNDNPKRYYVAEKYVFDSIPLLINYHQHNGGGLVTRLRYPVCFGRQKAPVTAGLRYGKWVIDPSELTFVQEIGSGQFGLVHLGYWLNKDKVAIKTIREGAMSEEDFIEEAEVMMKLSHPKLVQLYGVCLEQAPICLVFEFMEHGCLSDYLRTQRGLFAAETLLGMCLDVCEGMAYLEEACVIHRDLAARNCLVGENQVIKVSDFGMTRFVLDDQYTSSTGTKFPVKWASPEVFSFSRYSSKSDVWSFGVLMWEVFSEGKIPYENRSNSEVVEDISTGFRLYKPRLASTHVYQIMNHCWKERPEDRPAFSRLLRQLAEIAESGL", "conditions": "kinase ITK; Published KINOMEscan; ref original PKIS2 published data; cited from earlier work"}, "[6]": {"molecular_target": "T3, kinases (KINOMEscan panel) (Homo sapiens, UniProt Q15835)", "T3 sequence (Q15835 1-563)": "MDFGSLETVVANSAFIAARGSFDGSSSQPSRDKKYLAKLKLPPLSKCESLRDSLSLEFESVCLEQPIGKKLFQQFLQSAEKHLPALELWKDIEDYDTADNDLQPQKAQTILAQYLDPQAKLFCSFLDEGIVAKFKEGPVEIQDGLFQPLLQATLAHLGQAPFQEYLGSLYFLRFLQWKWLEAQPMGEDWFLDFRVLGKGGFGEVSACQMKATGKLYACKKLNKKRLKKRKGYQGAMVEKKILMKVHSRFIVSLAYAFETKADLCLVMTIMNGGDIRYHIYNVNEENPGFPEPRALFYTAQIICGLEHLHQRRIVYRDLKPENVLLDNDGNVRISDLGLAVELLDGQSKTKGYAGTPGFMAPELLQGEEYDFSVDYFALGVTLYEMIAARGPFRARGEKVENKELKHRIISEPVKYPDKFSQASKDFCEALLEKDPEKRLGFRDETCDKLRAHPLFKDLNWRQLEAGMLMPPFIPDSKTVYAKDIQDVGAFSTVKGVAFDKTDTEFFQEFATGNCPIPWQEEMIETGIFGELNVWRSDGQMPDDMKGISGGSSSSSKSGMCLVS", "conditions": "Published KINOMEscan; ref original PKIS2 published data; cited from earlier work"}, "[7]": {"molecular_target": "kinases (KINOMEscan panel) (Homo sapiens, UniProt Q52WX2)", "sequence (Q52WX2 whole entry)": "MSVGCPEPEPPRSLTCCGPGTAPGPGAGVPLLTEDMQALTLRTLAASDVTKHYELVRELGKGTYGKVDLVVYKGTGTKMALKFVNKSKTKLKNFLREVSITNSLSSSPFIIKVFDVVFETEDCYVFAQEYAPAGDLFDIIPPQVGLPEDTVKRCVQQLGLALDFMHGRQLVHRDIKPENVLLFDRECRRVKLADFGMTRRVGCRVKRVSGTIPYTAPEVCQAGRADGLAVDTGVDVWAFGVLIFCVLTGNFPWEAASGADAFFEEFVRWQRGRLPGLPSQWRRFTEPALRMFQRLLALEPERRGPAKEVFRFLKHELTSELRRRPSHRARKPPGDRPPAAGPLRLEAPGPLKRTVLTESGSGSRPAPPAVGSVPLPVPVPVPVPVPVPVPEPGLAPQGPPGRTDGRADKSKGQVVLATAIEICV", "conditions": "SBK1; Published KINOMEscan; ref original PKIS2 published data; cited from earlier work"}, "[8]": {"molecular_target": "kinases (KINOMEscan panel) (Homo sapiens, UniProt P54764)", "sequence (P54764 20-986)": "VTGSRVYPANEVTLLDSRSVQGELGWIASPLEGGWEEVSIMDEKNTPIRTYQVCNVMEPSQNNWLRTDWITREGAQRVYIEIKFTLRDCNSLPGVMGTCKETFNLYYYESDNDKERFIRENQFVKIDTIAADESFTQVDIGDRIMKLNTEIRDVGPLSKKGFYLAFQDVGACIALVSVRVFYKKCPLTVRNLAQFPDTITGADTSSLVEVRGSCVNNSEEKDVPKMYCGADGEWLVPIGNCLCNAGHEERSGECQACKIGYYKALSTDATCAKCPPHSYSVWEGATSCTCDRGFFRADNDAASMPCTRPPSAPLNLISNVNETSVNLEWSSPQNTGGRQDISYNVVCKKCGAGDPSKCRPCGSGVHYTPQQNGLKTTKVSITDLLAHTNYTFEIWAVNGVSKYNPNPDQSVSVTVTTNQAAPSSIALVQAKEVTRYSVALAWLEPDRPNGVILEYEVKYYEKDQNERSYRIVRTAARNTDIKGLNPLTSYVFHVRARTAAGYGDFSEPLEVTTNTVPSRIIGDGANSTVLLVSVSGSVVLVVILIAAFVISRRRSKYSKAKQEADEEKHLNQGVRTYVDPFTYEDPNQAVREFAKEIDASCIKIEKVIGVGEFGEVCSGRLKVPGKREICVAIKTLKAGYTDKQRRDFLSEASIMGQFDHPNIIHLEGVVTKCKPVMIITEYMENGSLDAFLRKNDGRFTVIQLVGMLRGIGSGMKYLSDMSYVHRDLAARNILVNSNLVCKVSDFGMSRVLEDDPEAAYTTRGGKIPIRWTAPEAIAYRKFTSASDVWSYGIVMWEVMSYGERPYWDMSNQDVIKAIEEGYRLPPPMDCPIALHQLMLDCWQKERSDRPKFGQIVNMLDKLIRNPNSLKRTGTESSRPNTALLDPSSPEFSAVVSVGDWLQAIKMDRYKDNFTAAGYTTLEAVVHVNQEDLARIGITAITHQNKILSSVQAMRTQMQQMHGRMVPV", "conditions": "EPHA4; Published KINOMEscan; ref original PKIS2 published data; cited from earlier work"}}, "data": [{"smiles": "Cc1cccc(-c2nc(Nc3ccncc3)c3ccccc3n2)n1", "note": "[NK215]", "values": [{"measurement": "KINOMEscan HIPK1", "setting": "[1]", "value": 41}, {"measurement": "KINOMEscan RIPK1", "setting": "[2]", "value": 4}, {"measurement": "KINOMEscan CDK11B", "setting": "[3]", "value": 0}, {"measurement": "KINOMEscan WNK3", "setting": "[4]", "value": 0}, {"measurement": "KINOMEscan ITK", "setting": "[5]", "value": 24}, {"measurement": "KINOMEscan GRK1", "setting": "[6]", "value": 0}, {"measurement": "KINOMEscan SBK1", "setting": "[7]", "value": 0}, {"measurement": "KINOMEscan EPHA4", "setting": "[8]", "value": 18}]}]}
